{
  "source": "patent US20210361563A1",
  "about": "“TRANSDERMAL SYSTEM FOR SYNERGISTIC IMMUNE-CHEMOTHERAPY USING MICRONEEDLES AND METHOD OF TREATMENT THEREOF” (THE UNIVERSITY OF HONG KONG, priority 2020, published 2021)",
  "key": {"[1]": {"tested_on": "SCC VII-luc tumor homograft", "experiment": "Antitumor efficiency in immunocompetent murine tumor homograft model", "format": "in vivo, C3H/HeJ mice", "text": "We further investigated tumor inhibition on an immunocompetent murine tumor homograft model. SCC VII cell lines were subcutaneously inoculated into the right flank of C3H/HeJ mice to obtain a superficial tumor. […] Tumor volume was monitored using a Vernier caliper before the treatment and 3 days after each treatment. Furthermore, tumor growth was double confirmed using bioluminescent images (FIG. 3A). […] The ineffective therapeutic role of aPD-1, however, may be due to the following reasons. First, the renovated T cells may be too exhausted that they display impaired effector function with limited proliferative potential ^26. Second, cancer antigens may be “masked”; therefore, they cannot be identified by T-cells ^27. Third, the tumor microenvironment may contain multiple inhibitory immune cells, such as tumor-associated macrophages, which overwhelm the T-cells into have adverse effects ^28. Although the exact reason was unclear, the animal model in this study was unresponsive to systemic aPD-1 immunotherapy.\nMale and female C3H/HeJ mice were purchased from The Jackson Laboratory (Bar Harbor, Me., USA) and bred in the Laboratory Animal Unit in the University of Hong Kong. All animal procedures were performed in accordance with a protocol approved by the Committee on the Used of Live Animals in Teaching and Research (CULATR, HKU). An immunocompetent murine tumor homograft model was established by injecting 1×10^6 SCC VII-luc cells suspended in 100 μL Hanks' balanced salt solution (HBSS, Gibco, USA) on the right flank of the mouse. […] The treatments were administered once the tumor volume reached 10 mm^3 and each treatment was administered every 3 days and lasted for 3 cycles. […] The tumor size was monitored by both the bioluminescence signals and the Vernier calipers every 3 days. Tumor volume was calculated as 0.5× long diameter×short diameter^2. Tumor volume and tumor wet weight were also measured after sacrifice. Tumor proliferation was determined in sliced tumor tissues using anti-Ki67 (Abcam, USA) following the IHC protocol."}, "[2]": {"tested_on": "CD4+ and CD8+ T-cells in tumor", "experiment": "T-cell infiltration in tumor tissues by flow cytometry", "format": "in vivo, C3H/HeJ mice", "conditions": "tumor tissue after sacrifice", "protocol": "(§1) To evaluate T-cell responses and the immune profile, tumor tissues and blood were harvested after sacrifice. aPD-1, being an ICB, could be a positive regulator of TILs. The infiltration of CD4+ T-cells and CD8+ T-cells into tumor cells was assessed through flow cytometry. […] To reveal the cellular mechanism in vivo, the production of IFN-γ and TNF-α was determined using ELISA kit in mice serum. […] (FIG. 5E)\nA piece of tumor was collected from each mouse for flow cytometry. After execution, the tissues were rinsed with PBS and maintained in PBS at 4° C. The tumor tissues were sliced into very small pieces and sieved through 100 μm cell strainer (BD Falcon, USA). Subsequently, the sliced tissue was pressed using the plunger end of a syringe. The supernatant was decanted and the pellet resuspended the pellet in Flow Cytometry Staining Buffer (PBS plus 10% FBS). The solution was separated into two Eppendorf tubes with a volume of 300 μL, then 1 μL primary antibody was added into one of the two tubes individually. The three primary antibodies used were rabbit anti-CD4 (Abcam, Cambridge, Mass., USA), rat anti-CD8 (Abcam, USA), and mouse anti-foxp3 (Abcam,USA). […]"}, "[3]": {"experiment": "H&E staining of liver, lung, kidney and spleen", "format": "in vivo, C3H/HeJ mice", "text": "Liver, lung, kidney and spleen of each group were collected after sacrifice for hematoxylin and eosin (H&E) staining to analyze whether drugs induced toxicity to these organs (FIG. 6C).\nThe livers, kidneys, spleens and lungs were collected after sacrifice and fixed in 4% PFA. After embedding into paraffin, the tissues were sliced into 5-μm sections for H&E staining. Images of the tissues were collected using a polarized light microscope (ECLIPSE LV100POL, Japan). The BUN and total IgG level in the serum were detected using a urea nitrogen detection kit (Thermo Fisher Scientific, USA) and a mouse IgG total ELISA kit (ThermoFisher Scientific, USA) respectively."}, "IFN-γ, TNF-α": {"tested_on": "IFN-γ, TNF-α", "experiment": "Serum IFN-γ and TNF-α ELISA", "format": "in vivo, C3H/HeJ mice", "protocol": "as §1\nBlood was collected from mice and maintained in anticoagulative tubes ([…]® Blood Collection Tubes, K3E K3EDTA, Greiner Bio-One International, Australia). Blood was centrifuged at 1500 g for 10 minutes at 4° C., then plasma was transferred into a new Eppendorf. After centrifugation at 2000 g for 15 mins at 4° C., the supernatant was collected to obtain the serum of mice. IFN-γ and TNF-α in the serum were detected using Mouse IFN-γ ELISA kit (Thermo Fisher Scientific, USA) and Mouse TNF-α ELISA kit (Thermo Fisher Scientific, USA), respectively."}, "cell lines": {"tested_on": "cell lines", "experiment": "Cell apoptosis (APO-BrdU TUNEL) and cell cycle (PI) by flow cytometry", "format": "cell-based", "conditions": "Pt 100 μM, 4 h", "protocol": "A large number of 3hydroxyl ends appeared when DNA strands became fragmented, and they were labeled with BrdUTP and terminal deoxynucleotidyl transferase (TdT) using the TUNEL technique. After DNA incorporation, BrdU could be detected through anti-BrdU antibody.\nCell apoptosis was detected using flow cytometry with the APO-BrdU™ tranferase dUTP nick end laveling (TUNEL) Assay Kit (Thermo Fisher Scientific, USA), and the phase of the cell cycle was determined using propidium iodide (PI, Thermo Fisher Scientific, USA) following the manufacturer's protocol. Cells were fixed with 1% paraformaldehyde (PFA) or ethanol before staining, and they were analyzed through flow cytometry (BD FACSVerse™, BD, Franklin Lake, N.J., USA) immediately after staining. All data were analyzed using FlowJo (7.6.1, BD, USA)."}, "[4]": {"tested_on": "SCC VII-luc tumor homograft", "experiment": "Ki-67 IHC cell proliferation in tumor tissue sections", "format": "in vivo, C3H/HeJ mice", "protocol": "Cell proliferation was further confirmed through IHC in formalin-fixed paraffin-embedded tumor tissue sections. […] Tumor infiltrating lymphocytes (TILs) like CD4+ cells and CD8+ infiltrated the tumor tissue and started to proliferate after aPD-1 treatment. […] TILs attacked the tumor tissues and killed the tumor cells afterwards. Whether these proliferated cells were T-cells or tumor cells were further confirmed through flow cytometry. Additionally, tumor cell apoptosis was assessed through in situ TUNEL assay (FIG. 4B & 4D). […] In sum, aPD-1-CDDP-NPs MN can not only increase the amount of activated T-cells but also kill tumor cells.\nMale and female C3H/HeJ mice were purchased from The Jackson Laboratory (Bar Harbor, Me., USA) and bred in the Laboratory Animal Unit in the University of Hong Kong. All animal procedures were performed in accordance with a protocol approved by the Committee on the Used of Live Animals in Teaching and Research (CULATR, HKU). […] The tumor size was monitored by both the bioluminescence signals and the Vernier calipers every 3 days. Tumor volume was calculated as 0.5× long diameter×short diameter^2. Tumor volume and tumor wet weight were also measured after sacrifice. Tumor proliferation was determined in sliced tumor tissues using anti-Ki67 (Abcam, USA) following the IHC protocol."}},
  "data": [
    {"smiles": "N.N.[Cl][Pt][Cl]", "note": "[CDDP, cis-Diammineplatinum(II)dichloride]", "values": [
      {"measurement": "antitumor effect (in words)", "setting": "[1]; SCC VII homograft, three treatments", "result": "limited treatment efficacy"},
      {"measurement": "tumor volume compared to control group (in words)", "setting": "[1]; mouse, in vivo", "result": "no difference"},
      {"measurement": "tumor weight compared to control group (in words)", "setting": "[1]; mouse, in vivo", "result": "significantly reduced"},
      {"measurement": "CD8+ T-cells among tumor cells", "setting": "[2]", "result": 4.478, "unit": "%"},
      {"measurement": "kidney histology (H&E)", "setting": "[3]; kidney", "result": "severe toxic tubular necrosis"},
      {"measurement": "liver histology (H&E)", "setting": "[3]; liver", "result": "some alterations were found in the liver parenchyma"},
      {"measurement": "lung histology (H&E)", "setting": "[3]; lung", "result": "diffuse damage of the pulmonary alveoli and severe inflammatory infiltration"},
      {"measurement": "spleen histology (H&E)", "setting": "[3]; spleen", "result": "white pulp was evidently reduced"},
      {"measurement": "IFN-γ level in serum", "setting": "IFN-γ, TNF-α", "result": "lower IFN-γ levels than other five groups"},
      {"measurement": "cell apoptosis", "setting": "cell lines", "result": 2.79, "unit": "%"},
      {"measurement": "cells continuing to proliferate (Ki-67)", "setting": "[4]", "result": 25, "unit": "%"}
    ]}
  ]
}
